From patent US11780845B2 (Relay Therapeutics, Inc., priority 2019, dated 2023)

How the values were obtained:
FGFR2 = FGFR2 (Homo sapiens (Human), UniProt P21802); test: FGFR2 Biochemical Caliper Assay
Experimental: Compounds of the present invention were also tested in a FGFR2 Biochemical Caliper Assay. Compounds were prepared in 10 mM DMSO solution and serially diluted into 11 concentrations by 3-fold dilution. […] 5 uL of ATP solution (100 uM) was added to start the reaction and the plate was incubated for 90 minutes, then 70 uL of stopping buffer (0.5M EDTA) was added to terminate the reaction. Each well was analyzed using EZ reader.

SNU16 cells = test: SNU16 Cancer Cell Line Proliferation Assay; assay type: cell-based; conditions: Homo sapiens; SNU-16 cells
Procedure, shortened: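 Proliferation read-out: CellTiter Glo chemiluminescence after 96 h compound exposure. Test compounds, serially diluted 3-fold over 11 points from a 10 mM DMSO stock, were added to SNU16 cells plated 24 h earlier at 37 degrees.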

FGFR2, sequence (P21802 22-821): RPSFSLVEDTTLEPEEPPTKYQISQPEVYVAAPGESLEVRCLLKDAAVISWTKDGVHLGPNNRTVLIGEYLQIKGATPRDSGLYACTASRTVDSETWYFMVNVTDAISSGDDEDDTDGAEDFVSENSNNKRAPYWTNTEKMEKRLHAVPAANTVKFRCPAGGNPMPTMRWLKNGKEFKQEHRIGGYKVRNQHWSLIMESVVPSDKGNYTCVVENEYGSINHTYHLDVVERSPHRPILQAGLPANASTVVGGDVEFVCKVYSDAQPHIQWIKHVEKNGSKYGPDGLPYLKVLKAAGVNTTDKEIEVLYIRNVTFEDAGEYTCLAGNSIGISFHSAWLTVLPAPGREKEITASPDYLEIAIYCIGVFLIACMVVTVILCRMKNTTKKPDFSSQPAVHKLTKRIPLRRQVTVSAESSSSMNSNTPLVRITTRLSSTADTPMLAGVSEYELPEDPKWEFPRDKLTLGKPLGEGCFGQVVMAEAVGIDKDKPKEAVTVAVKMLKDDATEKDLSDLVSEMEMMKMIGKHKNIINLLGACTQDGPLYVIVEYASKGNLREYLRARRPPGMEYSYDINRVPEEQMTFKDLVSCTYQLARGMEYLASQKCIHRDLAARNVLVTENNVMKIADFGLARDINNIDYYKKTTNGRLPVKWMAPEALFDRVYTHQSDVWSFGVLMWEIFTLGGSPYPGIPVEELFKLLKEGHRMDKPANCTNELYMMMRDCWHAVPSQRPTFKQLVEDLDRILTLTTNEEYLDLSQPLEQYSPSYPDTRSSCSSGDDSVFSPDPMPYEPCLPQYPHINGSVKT

SMILES: C=CC(=O)N1CCC(n2cc(-c3c(-c4ccc(Oc5cccc(C)n5)cc4)c4c(N)ncnc4n3C)cn2)C1 (stereo not drawn) [Example 630]
- IC50 (FGFR2): < 0.1 µM
- IC50 (SNU16 cells): ≤ 0.1 µM

SMILES: C=CC(=O)N1CCC(n2cc(-c3c(-c4ccc(Oc5cc(C)ccn5)cc4)c4c(N)ncnc4n3C)cn2)CC1 [Example 631]
- IC50 (FGFR2): 0.1 to 0.25 µM
- IC50 (SNU16 cells): 0.1 to 0.25 µM

SMILES: C=CC(=O)N1CCC(n2cc(-c3c(-c4ccc(Oc5cccc(C)n5)cc4)c4c(N)ncnc4n3C)c(C)n2)CC1 [Example 632]
- IC50 (FGFR2): < 0.1 µM
- IC50 (SNU16 cells): ≤ 0.1 µM

SMILES: C=CC(=O)N1CCC(n2cc(-c3c(-c4ccc(Oc5ncccn5)cc4)c4c(N)ncnc4n3C)cn2)CC1 [Example 633]
- IC50 (FGFR2): 0.1 to 0.25 µM
- IC50 (SNU16 cells): 0.1 to 0.25 µM

SMILES: C=CC(=O)N1CCC(n2cc(-c3c(-c4ccc(Oc5cccc(F)n5)cc4)c4c(N)ncnc4n3C)cn2)CC1 [Example 634]
- IC50 (FGFR2): < 0.1 µM
- IC50 (SNU16 cells): ≤ 0.1 µM

SMILES: CC#CC(=O)N1CCC(n2cc(-c3c(-c4ccc(Oc5cccc(C)n5)cc4)c4c(N)ncnc4n3C)cn2)C1 (stereo not drawn) [Example 635]
- IC50 (FGFR2): 0.1 to 0.25 µM
- IC50 (SNU16 cells): ≤ 0.1 µM

SMILES: C=CC(=O)N1CCC(n2cc(-c3c(-c4ccc(Oc5ccc(C)cn5)cc4)c4c(N)ncnc4n3C)cn2)CC1 [Example 636]
- IC50 (FGFR2): 0.1 to 0.25 µM
- IC50 (SNU16 cells): ≤ 0.1 µM

SMILES: C=CC(=O)N1CCC(n2ncc(-c3c(-c4ccc(Oc5cccc(C)n5)cc4)c4c(N)ncnc4n3C)c2C)CC1 [Example 637]
- IC50 (FGFR2): < 0.1 µM
- IC50 (SNU16 cells): ≤ 0.1 µM

SMILES: C=CC(=O)N1CCC(n2cc(-c3c(-c4ccc(Oc5ccccn5)cc4)c4c(N)ncnc4n3C)cn2)CC1 [Example 638]
- IC50 (FGFR2): < 0.1 µM
- IC50 (SNU16 cells): ≤ 0.1 µM

SMILES: C/C=C/C(=O)N1CC(n2cc(-c3c(-c4ccc(Oc5cccc(C)n5)cc4)c4c(N)ncnc4n3C)cn2)C1 [Example 639]
- IC50 (FGFR2): < 0.1 µM
- IC50 (SNU16 cells): ≤ 0.1 µM

SMILES: C/C=C/C(=O)N1CCC(n2cc(-c3c(-c4ccc(Oc5cccc(C)n5)cc4)c4c(N)ncnc4n3C)cn2)C1 (stereo not drawn) [Example 640]
- IC50 (FGFR2): < 0.1 µM
- IC50 (SNU16 cells): ≤ 0.1 µM

SMILES: C=CC(=O)N1CCC(n2cc(-c3c(-c4ccc(Oc5cccc(C)n5)c(OC)c4)c4c(N)ncnc4n3C)cn2)CC1 [Example 641]
- IC50 (FGFR2): < 0.1 µM
- IC50 (SNU16 cells): ≤ 0.1 µM

SMILES: C=CC(=O)N1CCC(n2cc(-c3c(-c4ccc(Oc5cnccn5)cc4)c4c(N)ncnc4n3C)cn2)CC1 [Example 642]
- IC50 (FGFR2): 0.25 to 1 µM
- IC50 (SNU16 cells): 0.1 to 0.25 µM

SMILES: C=C(CN1CCOCC1)C(=O)N1CCC(n2cc(-c3c(-c4ccc(Oc5cccc(C)n5)cc4)c4c(N)ncnc4n3C)cn2)CC1 [Example 643]
- IC50 (FGFR2): 0.25 to 1 µM
- IC50 (SNU16 cells): 0.25 to 1 µM

SMILES: CC#CC(=O)N1CCC(n2cc(-c3c(-c4ccc(Oc5cccc(C)n5)cc4)c4c(N)ncnc4n3C)cn2)CC1 [Example 644]
- IC50 (FGFR2): 0.25 to 1 µM
- IC50 (SNU16 cells): 0.25 to 1 µM

SMILES: C=CC(=O)N1CCC(c2c(-c3ccc(Oc4cccc(C)n4)cc3)c3c(N)ncnc3n2C)C1 (stereo not drawn) [Example 645]
- IC50 (FGFR2): < 0.1 µM
- IC50 (SNU16 cells): ≤ 0.1 µM

SMILES: Cc1cccc(Oc2ccc(-c3c(-c4cnn(C5CCN(C(=O)/C=C/CN6CCOCC6)CC5)c4)n(C)c4ncnc(N)c34)cc2)n1 [Example 646]
- IC50 (FGFR2): 0.1 to 0.25 µM
- IC50 (SNU16 cells): 0.1 to 0.25 µM

SMILES: C=CC(=O)N1CCC(c2c(-c3ccc(Oc4cccc(C)n4)cc3)c3c(N)ncnc3n2C)CC1 [Example 647]
- IC50 (FGFR2): < 0.1 µM
- IC50 (SNU16 cells): ≤ 0.1 µM

SMILES: C=CS(=O)(=O)N1CCC(n2cc(-c3c(-c4ccc(Oc5cccc(C)n5)cc4)c4c(N)ncnc4n3C)cn2)CC1 [Example 648]
- IC50 (FGFR2): < 0.1 µM
- IC50 (SNU16 cells): 0.1 to 0.25 µM

SMILES: C/C=C/C(=O)N1CCC(n2cc(-c3c(-c4ccc(Oc5cccc(C)n5)cc4)c4c(N)ncnc4n3C)cn2)CC1 [Example 649]
- IC50 (FGFR2): 0.1 to 0.25 µM
- IC50 (SNU16 cells): 0.25 to 1 µM

SMILES: C=CC(=O)N1CCC(n2cc(-c3c(-c4ccc(Oc5cccc(OC)n5)cc4)c4c(N)ncnc4n3C)cn2)CC1 [Example 650]
- IC50 (FGFR2): < 0.1 µM
- IC50 (SNU16 cells): ≤ 0.1 µM

SMILES: C=CC(=O)N1CCC(c2nnc(-c3c(-c4ccc(Oc5cccc(C)n5)cc4)c4c(N)ncnc4n3C)o2)CC1 [Example 651]
- IC50 (FGFR2): 0.1 to 0.25 µM
- IC50 (SNU16 cells): ≤ 0.1 µM

SMILES: C=C(C)C(=O)N1CCC(n2cc(-c3c(-c4ccc(Oc5ccccc5)cc4)c4c(N)ncnc4n3C)cn2)CC1 [Example 652]
- IC50 (FGFR2): 0.1 to 0.25 µM
- IC50 (SNU16 cells): 1 to 100 µM

SMILES: C=C(C)C(=O)N1CCC(n2cc(-c3c(-c4ccc(OC)cc4)c4c(N)ncnc4n3C)cn2)CC1 [Example 653]
- IC50 (FGFR2): 0.25 to 1 µM
- IC50 (SNU16 cells): 1 to 100 µM

SMILES: C=CC(=O)N1CC=C(c2c(-c3ccc(OC)cc3)c3c(N)ncnc3n2C)CC1 [Example 654]
- IC50 (FGFR2): < 0.1 µM
- IC50 (SNU16 cells): ≤ 0.1 µM

SMILES: C/C(=C\CN(C)C)C(=O)N1CCC(n2cc(-c3c(-c4ccc(Oc5cccc(C)n5)cc4)c4c(N)ncnc4n3C)cn2)CC1 [Example 655]
- IC50 (FGFR2): 0.25 to 1 µM
- IC50 (SNU16 cells): 1 to 100 µM

SMILES: C=CC(=O)N1CC=C(c2c(-c3ccc(Oc4cccc(C)n4)cc3)c3c(N)ncnc3n2C)CC1 [Example 656]
- IC50 (FGFR2): < 0.1 µM
- IC50 (SNU16 cells): ≤ 0.1 µM

SMILES: C=CC(=O)N1CCC=C(c2c(-c3ccc(Oc4cccc(C)n4)c(OC)c3)c3c(N)ncnc3n2C)C1 [Example 657]
- IC50 (FGFR2): 1 to 100 µM
- IC50 (SNU16 cells): 1 to 100 µM

SMILES: C=CC(=O)N1CCC(c2nc(-c3c(-c4ccc(Oc5cccc(C)n5)cc4)c4c(N)ncnc4n3C)no2)CC1 [Example 660]
- IC50 (FGFR2): < 0.1 µM
- IC50 (SNU16 cells): ≤ 0.1 µM

SMILES: C=CC(=O)N1CCCC(c2c(-c3ccc(Oc4cccc(C)n4)c(OC)c3)c3c(N)ncnc3n2C)C1 (stereo not drawn) [Example 661]
- IC50 (FGFR2): 1 to 100 µM
- IC50 (SNU16 cells): 1 to 100 µM

SMILES: C=CC(=O)NC1CCC(c2c(-c3ccc(Oc4cccc(C)n4)cc3)c3c(N)ncnc3n2C)CC1 (stereo not drawn) [Example 662]
- IC50 (FGFR2): 0.1 to 0.25 µM
- IC50 (SNU16 cells): 0.25 to 1 µM

SMILES: C=CC(=O)N1CCCC(c2c(-c3ccc(Oc4cccc(C)n4)cc3)c3c(N)ncnc3n2C)C1 (stereo not drawn) [Example 663]
- IC50 (FGFR2): 0.25 to 1 µM
- IC50 (SNU16 cells): 0.25 to 1 µM

SMILES: C=CC(=O)N1CCC(n2cc(-c3c(-c4ccc(Oc5ccccn5)c(OC)c4)c4c(N)ncnc4n3C)cn2)CC1C (stereo not drawn) [Example 664]
- IC50 (FGFR2): 0.1 to 0.25 µM
- IC50 (SNU16 cells): 0.1 to 0.25 µM

SMILES: C=CC(=O)N1CCC=C(c2c(-c3ccc(Oc4cccc(C)n4)cc3)c3c(N)ncnc3n2C)C1 [Example 665]
- IC50 (FGFR2): 0.1 to 0.25 µM
- IC50 (SNU16 cells): 0.25 to 1 µM

SMILES: C=CC(=O)N1CC=C(c2c(-c3ccc(Oc4cccc(C)n4)cc3)c3c(N)ncnc3n2C)C1 [Example 666]
- IC50 (FGFR2): < 0.1 µM
- IC50 (SNU16 cells): ≤ 0.1 µM

SMILES: C=CC(=O)N1CC=C(c2c(-c3ccc(Oc4cccc(C)n4)c(OC)c3)c3c(N)ncnc3n2C)C1 [Example 667]
- IC50 (FGFR2): 0.1 to 0.25 µM
- IC50 (SNU16 cells): 0.1 to 0.25 µM

SMILES: C/C=C(\C#N)C(=O)N1CCC(n2cc(-c3c(-c4ccc(Oc5cccc(C)n5)cc4)c4c(N)ncnc4n3C)cn2)CC1 [Example 668]
- IC50 (FGFR2): < 0.1 µM
- IC50 (SNU16 cells): 1 to 100 µM

SMILES: C=CC(=O)N1CCC(n2cc(-c3c(-c4ccc(Oc5ccccn5)c(OC)c4)c4c(N)ncnc4n3C)cn2)CC1 [Example 669]
- IC50 (FGFR2): 0.25 to 1 µM
- IC50 (SNU16 cells): 0.25 to 1 µM

SMILES: C=CC(=O)N1CCC(c2c(-c3ccc(Oc4cccc(C)n4)c(OC)c3)c3c(N)ncnc3n2C)C1 (stereo not drawn) [Example 670]
- IC50 (FGFR2): 0.25 to 1 µM
- IC50 (SNU16 cells): 0.25 to 1 µM

SMILES: C/C(=C\CN(C)C)C(=O)N1CC(n2cc(-c3c(-c4ccc(Oc5cccc(C)n5)cc4)c4c(N)ncnc4n3C)cn2)C1 [Example 671]
- IC50 (FGFR2): 0.25 to 1 µM
- IC50 (SNU16 cells): 1 to 100 µM

SMILES: C=CC(=O)N1CCC(n2cc(-c3c(-c4ccc(Oc5cccc(C)c5)c(OC)c4)c4c(N)ncnc4n3C)cn2)CC1 [Example 672]
- IC50 (FGFR2): 0.1 to 0.25 µM
- IC50 (SNU16 cells): 0.25 to 1 µM

SMILES: C=CC(=O)N1CCC(n2ncc(-c3c(-c4ccc(Oc5cccc(C)n5)c(OC)c4)c4c(N)ncnc4n3C)c2C)CC1 [Example 673]
- IC50 (FGFR2): < 0.1 µM
- IC50 (SNU16 cells): ≤ 0.1 µM
